Where “and” joins values, the source holds several entries; their conditions need not be identical. Equal values may be shown once.
Experiments:
men = experiment: Clinical study: fatigue test, 50 maximal unilateral isokinetic leg extensions, before and after 28 days of supplementation; type: in vivo; conditions: for Peak Torque: mean of first three repetitions
Method: The supplements were designed to be as similar as possible in volume, color, and taste, and included 5.0 g of phosphocreatine disodium salts plus 200 mg of blueberry extract in the supplements for the Phosphocreatine/Blueberry Group, 3.0 g of creatine monohydrate for the Creatine Group, and microcrystalline cellulose for the placebo group. The bulk powder mixtures were sieved through a 60-mesh sieve to ensure inform particle size and to get rid of the agglomerates. They were then blended for one hour using an Erweka V-mixer (Model AR 403, Erweka America Inc., Edison, NJ) prior to packaging. Homogeneity of mixing was visually confirmed with the coloring agents used. Blended powders were accurately weighed (mass±1%) into individual foil lined pouches using a calibrated balance (Model SX 410, Denver Instruments, Bohemia, NY) and heat sealed. Five quality control samples were randomly selected from the packaged batch throughout the packaging process to ensure even distribution of contents, verified by mass for all samples and for creatine content in non-placebo samples by HPLC analysis.
The study was implemented as a double-blind, placebo-controlled, parallel design study. The study included a familiarization visit with each of the participants, a pre-supplementation test visit, 28 days of daily supplementation, and a post-supplementation test visit. During the testing visits, the subjects performed the fatigue test of Thorstensson and Karlsson which consisted of 50 maximal, unilateral, concentric, isokinetic leg extensions of the left leg at 180°·s^−1.
After completion of the pre-supplementation test visit, the participants were randomly assigned to one of the three groups described above. The subjects were provided with 28 days of individually packaged packets of powder of their assigned supplement and were instructed to mix the contents of the packet with 8 oz of water and drink it immediately after mixing. The subjects were instructed to maintain their usual exercise and dietary habits throughout the study. Each subject completed a 3-day dietary recall form and a 7-day exercise recall form prior to the pre-supplementation testing visit and prior to the post-supplementation testing visit to determine if there were changes in total caloric and macronutrient intake as well as exercise time during the supplementation period.
Before and after the 28 day supplementation regimens, peak torque, average power and percent decline for peak torque and average power were assessed from a fatigue test consisting of 50 maximal, unilateral, isokinetic leg extensions at 180°·s^−1.
During both pre-supplementation and post-supplementation test visits, peak torque and average power were assessed during the fatigue tests. Peak torque and average power were defined as the mean values from the first three repetitions of the fatigue test. Average power was operationally defined in the as the time averaged, integrated area under the isokinetic torque curve. To calculate the average power, the voltage-time relationships were converted to the isokinetic torque curve by converting the voltage to torque in N·m based on a regression equation. Integration of the area under the torque curve was accomplished using a custom LabVIEW program (National Instrument, Austin, TX, USA) and the average power was then calculated by dividing the integrated area under the torque curve by the time for each isokinetic repetition.

[1] = test system: CaCo2 cell model for intestinal barrier; experiment: Diffusion of extract polyphenols/flavonoids through confluent CaCo2 monolayer in side by side diffusion cells; type: in vitro ADME; conditions: 10 mM alpha, beta or gamma cyclodextrin with blueberry polyphenol solution ~1 mg/ml
[2] = pre- to post-supplement, 28 days, monohydrate

effect of cyclodextrin on permeation of blueberry phenolics thru the CaCo2 membrane [1] | Compound | Average Power (men; Post-Supplement (28 days)) [Watts] | Peak Torque (men; Post-Supplement (28 days)) | Average Power (men; Pre-Supplement) [Watts] | Peak Torque (men; Pre-Supplement) | Average Power Change (%) (men; [2]) | Peak Torque Change (%) (men; [2])
– | CN(CC(=O)O)C(=N)N.O [Creatine Group, creatine monohydrate] | 159.78 ± 31.20 | 111.97 ± 24.50 | 143.42 ± 33.84 | 99.95 ± 22.50 | 10.22% and 10.22 ± 13.62% | 10.47% and 10.47 ± 11.03%
best effect on increasing the permeation | OC[C@H]1O[C@@H]2O[C@H]3[C@H](O)[C@@H](O)[C@@H](O[C@H]4[C@H](O)[C@@H](O)[C@@H](O[C@H]5[C@H](O)[C@@H](O)[C@@H](O[C@H]6[C@H](O)[C@@H](O)[C@@H](O[C@H]7[C@H](O)[C@@H](O)[C@@H](O[C@H]8[C@H](O)[C@@H](O)[C@@H](O[C@H]1[C@H](O)[C@H]2O)O[C@@H]8CO)O[C@@H]7CO)O[C@@H]6CO)O[C@@H]5CO)O[C@@H]4CO)O[C@@H]3CO [beta cyclodextrin] | – | – | – | – | – | –
